Reference: PMC7934871 (JCI Insight, 2021)
Non-standard residues stand in square brackets, D forms with d. No end group written: not given here. pY = N[C@@H](Cc1ccc(OP(=O)(O)O)cc1)C(=O)O

Legend:
[1] = system: exportins 1–6; test: Immunoprecipitation of FAM-labeled peptide and Western blotting, exportins 1–6; format: binding, human; conditions: anti-FITC (FAM) immunoprecipitation, Western blotting, U251 cells
Method: Data are representative of 3 independent experiments (n = 3).
(§1) Whole cell lysates or tissue homogenates were prepared by using RIPA lysis buffer (50 mM Tris at pH 7.4, 150 mM NaCl, 1 mM EDTA, 0.5% NP-40, 1 mM NaF, 15% glycerol, and 20 mM β-glycerophosphate). A protease inhibitor cocktail (Mini Protease Inhibitor Cocktail; Roche) and a tyrosine phosphatase inhibitor, sodium orthovanadate (Na3VO4, 1 mM), were added freshly to the lysis buffer. Protein amounts were determined by BCA using a Thermo Fisher Scientific kit. Normalized protein amounts were subjected to an SDS-PAGE and transferred onto a nitrocellulose membrane for Western blotting. Proteins were visualized with a chemiluminescent detection kit (Pierce, Thermo Fisher Scientific). The protein levels for STAT1 (sc-346, E-23), STAT3 (sc-482, C-20), STAT5 (sc-74442, A-9), Crm1 (exportin 1) (sc-5595, H-300), CAS (exportin 2) (sc-271537, H-2), exportin 5 (sc-66885, H-300), and exportin 7 (sc-98639, H-82) were determined using antibodies from Santa Cruz Biotechnology Inc. Anti–exportin 3 (exportin T, 630622, LOS1 05-1525), anti–exportin 4 (3499-1), and anti–exportin 6 (11408-1-AP) were from MilliporeSigma, Epitomics, and Proteintech, respectively. […]

[2] = molecular target: T1, acetyl-STAT3 (Homo sapiens, UniProt P40763); test: Immunoprecipitation of PS-oligo and Western blotting, acetyl-STAT3; format: binding; conditions: HCT116 cells, immunoprecipitation of PS-oligo, Western blotting
T1 construct: endogenous in cells; host or cells: HCT116
T1 sequence (P40763 whole entry): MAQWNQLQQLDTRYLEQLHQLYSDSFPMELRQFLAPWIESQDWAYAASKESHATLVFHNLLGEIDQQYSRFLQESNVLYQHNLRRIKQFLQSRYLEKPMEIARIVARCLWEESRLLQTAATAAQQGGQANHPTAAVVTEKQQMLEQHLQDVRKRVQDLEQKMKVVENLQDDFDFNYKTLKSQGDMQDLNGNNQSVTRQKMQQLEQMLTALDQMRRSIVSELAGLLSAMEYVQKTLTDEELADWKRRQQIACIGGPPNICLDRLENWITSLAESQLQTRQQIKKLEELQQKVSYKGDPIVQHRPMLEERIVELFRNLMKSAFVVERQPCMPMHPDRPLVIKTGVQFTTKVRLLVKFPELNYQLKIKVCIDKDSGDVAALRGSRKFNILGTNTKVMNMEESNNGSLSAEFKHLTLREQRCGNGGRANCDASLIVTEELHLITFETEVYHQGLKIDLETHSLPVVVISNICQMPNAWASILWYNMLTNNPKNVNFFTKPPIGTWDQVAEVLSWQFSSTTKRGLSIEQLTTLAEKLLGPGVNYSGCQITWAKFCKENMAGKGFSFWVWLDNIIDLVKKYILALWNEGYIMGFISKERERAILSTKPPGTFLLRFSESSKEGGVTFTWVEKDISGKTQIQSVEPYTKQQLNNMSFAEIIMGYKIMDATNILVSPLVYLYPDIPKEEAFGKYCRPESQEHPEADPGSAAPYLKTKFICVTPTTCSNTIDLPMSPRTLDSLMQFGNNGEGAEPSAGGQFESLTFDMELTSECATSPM
Method: as §1
labeled PS-acet.-STAT3 peptide. The fluorescence intensity of FAM-labeled PS-acet.-STAT3 peptide in the cells was quantified by flow cytometry. […]
quantification of FAM. […]
above were assessed by qRT-PCR. […]

[3] = system: KPC mouse PDAC cells; test: KPC mouse PDAC tumor model in C57BL/6 mice; format: in vivo; conditions: KPC s.c. in C57BL/6 mice, i.v. 1 mg/kg every other day for 18 days (combination 0.5 mg/kg each), n = 5
Method: SD is shown. […] SD is shown.
Mouse care and experimental procedures were performed under pathogen-free conditions in accordance with established institutional guidance and approved IACUC protocols from Research Animal Care Committee of the City of Hope. For s.c. tumor challenge, 5 × 10^6 HCT116 cells were injected into NSG mice from The Jackson Laboratory or animal resource core facility at the City of Hope. After tumors reached an average size of 80~100 mm^3, mice were locally or intravenously treated with 1 mg/kg of PO- or PS-peptides (Anaspec) every day or every other day. Control animals were treated with the equal volume of HBSS (Invitrogen, Thermo Fisher Scientific). Tumor growth was measured by a digital caliper every other day. To study the effects of the modified peptides at protein and gene levels, mice were euthanized 4–6 weeks after tumor injection. B16 melanoma lung metastasis was performed by injecting 0.5 × 10^6 B16 cells into bloodstream of C57BL/6 mice (The Jackson Laboratory). One day after tumor challenge, mice were treated intravenously (retro-orbitally) with 1 mg/kg of PO- or PS-acet.-STAT3, PS-unacet.-STAT3, or PS-STAT3-K685R peptides every other day until the endpoint as indicated. […] Lungs were then analyzed for immune responses by immunostaining followed by confocal imaging. […] Tumor growth was measured by a digital caliper every other day. […]

Row | Substance | binding to exportins 1–6 [1] | binding to acetyl-STAT3 [2] | PDAC tumor growth [3]
1 | PDIPKEEAFGK685(Ac)YCRPESQEHPC-linker-T*C*C*A*T*G*A*G*C*T*T*C*C*T*G*A*T*G*C*T [PS-acet.-STAT3 peptide] | not | directly bound | 
2 | PS-Gp130: PS-conjugated Gp130 peptide (amino acids 901–910) with phospho-Tyr905 (MPKS[pY]LPQTV; also: phosphorothioate oligonucleotide conjugate; UniProt P40189 901-910, looked up, fragment) |  |  | significantly inhibited
